Measured values from US6737383B1, “Herbicidal oxadiazolidines” (priority 1999, dated 2004).

Columns and labels:
[1] = tested on: bedstraw; assay: Test B pre/postemergence bedstraw; format: in vivo, Galium aparine
How it was run: (§1)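 Test chemicals in a non-phytotoxic solvent mixture with surfactant were sprayed preemergence onto planted seeds and postemergence onto plants 2 to 18 cm tall (1- to 4-leaf stage). After twelve to sixteen days in a greenhouse, injury was visually rated against untreated controls from 0 (no effect) to 10 (complete control).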

[2] = tested on: blackgrass; assay: Test B pre/postemergence blackgrass; format: in vivo, Alopecurus myosuroides
How it was run: as §1

[3] = tested on: surinam grass; assay: Test B pre/postemergence surinam grass; format: in vivo, Brachiaria decumbens
How it was run: as §1

[4] = tested on: cocklebur; assay: Test B pre/postemergence cocklebur; format: in vivo, Xanthium strumarium
How it was run: as §1

[5] = tested on: corn; assay: Test B pre/postemergence corn; format: in vivo, Zea mays
How it was run: as §1

[6] = tested on: crabgrass; assay: Test B pre/postemergence crabgrass; format: in vivo, Digitaria sanguinalis
How it was run: as §1

[7] = tested on: giant foxtail; assay: Test B pre/postemergence giant foxtail; format: in vivo, Setaria faberii
How it was run: as §1

[8] = tested on: morningglory; assay: Test B pre/postemergence morningglory; format: in vivo, Ipomoea hederacea
How it was run: as §1

[9] = tested on: pigweed; assay: Test B pre/postemergence pigweed; format: in vivo, Amaranthus retroflexus
How it was run: as §1

[10] = tested on: rape; assay: Test B pre/postemergence rape; format: in vivo, Brassica napus
How it was run: as §1

[11] = tested on: soybean; assay: Test B pre/postemergence soybean; format: in vivo, Glycine max
How it was run: as §1

[12] = tested on: sugar beet; assay: Test B pre/postemergence sugar beet; format: in vivo, Beta vulgaris
How it was run: as §1

[13] = tested on: velvetleaf; assay: Test B pre/postemergence velvetleaf; format: in vivo, Abutilon theophrasti
How it was run: as §1

[14] = tested on: wheat; assay: Test B pre/postemergence wheat; format: in vivo, Triticum aestivum
How it was run: as §1

[15] = tested on: wild oat; assay: Test B pre/postemergence wild oat; format: in vivo, Avena fatua
How it was run: as §1

[16] = tested on: purple nutsedge; assay: Test B pre/postemergence purple nutsedge; format: in vivo, Cyperus rotundus
How it was run: as §1

[17] = tested on: rice; assay: Test B flood test rice; format: in vivo, Oryza sativa
How it was run: (§2)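 Plants were grown to the 2-leaf stage before treatment with test chemical, then held in a greenhouse for twelve to sixteen days. Injury was visually rated against untreated controls on a 0–10 scale, where 0 is no effect and 10 is complete control.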

[18] = tested on: smallflower flatsedge; assay: Test B flood test smallflower flatsedge; format: in vivo, Cyperus difformis
How it was run: as §2

[19] = tested on: duck salad; assay: Test B flood test duck salad; format: in vivo, Heteranthera limosa
How it was run: as §2

[20] = tested on: bamyardgrass; assay: Test B flood test barnyardgrass; format: in vivo, Echinochloa crus-galli
How it was run: as §2

[21] = Preemergence, Rate 62 g/ha, scale of 0 to 10 where 0 is no effect and 10 is complete control
[22] = Preemergence, Rate 250 g/ha, scale of 0 to 10 where 0 is no effect and 10 is complete control
[23] = Preemergence, Rate 500 g/ha, scale of 0 to 10 where 0 is no effect and 10 is complete control
[24] = Rate 62 g/ha, Postemergence, scale of 0 to 10 where 0 is no effect and 10 is complete control
[25] = Rate 125 g/ha, Postemergence, scale 0 to 10
[26] = Rate 125 g/ha, Preemergence, scale of 0 to 10 where 0 is no effect and 10 is complete control
[27] = Rate 500 g/ha, Postemergence, scale 0 to 10, 0 no effect, 10 complete control
[28] = Rate 62 g/ha, headed Pre-emergence (flood test species), scale 0 to 10 (0 no effect, 10 complete control)
[29] = Rate 125 g/ha, Pre-emergence, flood test species, scale 0 to 10 where 0 is no effect and 10 is complete control
[30] = Rate 250 g/ha, Pre-emergence, flood-test species, scale 0 to 10, 0 is no effect, 10 is complete control
[31] = Rate 500 g/ha, Pre-emergence, flood test species, scale 0 to 10 (0 no effect, 10 complete control)

CCCCCCCCCCCCCCCCCCCn1c(=O)on(C(=O)N(c2ccc(F)cc2)C(C)C)c1=O [Compound 253]
0: Bedstraw plant response rating [1, 21] | Bedstraw plant response rating [1, 22] | Plant response rating, Bedstraw [1, 23] | Bedstraw plant response rating [1, 24] | Bedstraw plant response rating [1, 25] | Bedstraw plant response rating [1, 26] | Plant response rating (0 to 10; 0 is no effect, 10 is complete control), Bedstraw ([1]; Rate 250 g/ha, Postemergence) | Bedstraw plant response rating [1, 27] | Blackgrass plant response rating [2, 21] | Blackgrass plant response rating [2, 22] | Plant response rating, Blackgrass [2, 23] | Blackgrass plant response rating [2, 24] | Blackgrass plant response rating [2, 25] | Blackgrass plant response rating [2, 26] | Plant response rating (0 to 10; 0 is no effect, 10 is complete control), Blackgrass ([2]; Rate 250 g/ha, Postemergence) | Blackgrass plant response rating [2, 27] | B. signalgrass plant response rating [3, 21] | B. signalgrass plant response rating [3, 22] | Plant response rating, B. signalgrass [3, 23] | B. signalgrass plant response rating [3, 24] | B. signalgrass plant response rating ([3]; Rate 125 g/ha, Postemergence, scale 0 (no effect) to 10 (complete control)) | B. signalgrass plant response rating [3, 26] | Plant response rating (0 to 10; 0 is no effect, 10 is complete control), B. signalgrass ([3]; Rate 250 g/ha, Postemergence) | B. signalgrass plant response rating [3, 27] | Cocklebur plant response rating [4, 21] | Cocklebur plant response rating [4, 22] | Plant response rating, Cocklebur [4, 23] | Cocklebur plant response rating [4, 24] | Cocklebur plant response rating [4, 25] | Cocklebur plant response rating [4, 26] | Plant response rating (0 to 10; 0 is no effect, 10 is complete control), Cocklebur ([4]; Rate 250 g/ha, Postemergence) | Cocklebur plant response rating [4, 27] | Corn plant response rating [5, 21] | Corn plant response rating [5, 22] | Plant response rating, Corn [5, 23] | Corn plant response rating [5, 24] | Corn plant response rating [5, 25] | Corn plant response rating [5, 26] | Plant response rating (0 to 10; 0 is no effect, 10 is complete control), Corn ([5]; Rate 250 g/ha, Postemergence) | Corn plant response rating [5, 27] | Crabgrass plant response rating [6, 21] | Crabgrass plant response rating [6, 22] | Plant response rating, Crabgrass [6, 23] | Crabgrass plant response rating [6, 26] | Plant response rating (0 to 10; 0 is no effect, 10 is complete control), Crabgrass ([6]; Rate 250 g/ha, Postemergence) | Crabgrass plant response rating [6, 27] | Giant foxtail plant response rating [7, 21] | Giant foxtail plant response rating [7, 22] | Plant response rating, Giant foxtail [7, 23] | Giant foxtail plant response rating [7, 26] | Plant response rating (0 to 10; 0 is no effect, 10 is complete control), Giant foxtail ([7]; Rate 250 g/ha, Postemergence) | Giant foxtail plant response rating [7, 27] | Morningglory plant response rating [8, 21] | Morningglory plant response rating [8, 22] | Plant response rating, Morningglory [8, 23] | Morningglory plant response rating [8, 26] | Plant response rating (0 to 10; 0 is no effect, 10 is complete control), Morningglory ([8]; Rate 250 g/ha, Postemergence) | Morningglory plant response rating [8, 27] | Redroot pigweed plant response rating [9, 21] | Redroot pigweed plant response rating [9, 22] | Plant response rating, Redroot pigweed [9, 23] | Redroot pigweed plant response rating [9, 26] | Plant response rating (0 to 10; 0 is no effect, 10 is complete control), Redroot pigweed ([9]; Rate 250 g/ha, Postemergence) | Redroot pigweed plant response rating [9, 27] | Rape plant response rating [10, 21] | Rape plant response rating [10, 22] | Plant response rating, Rape [10, 23] | Rape plant response rating [10, 26] | Plant response rating (0 to 10; 0 is no effect, 10 is complete control), Rape ([10]; Rate 250 g/ha, Postemergence) | Rape plant response rating [10, 27] | Soybean plant response rating [11, 21] | Soybean plant response rating [11, 22] | Plant response rating, Soybean [11, 23] | Soybean plant response rating [11, 26] | Soybean plant response rating [11, 27] | Sugarbeets plant response rating [12, 21] | Sugarbeets plant response rating [12, 22] | Plant response rating, Sugarbeets [12, 23] | Sugarbeets plant response rating [12, 26] | Sugarbeets plant response rating [12, 27] | Velvetleaf plant response rating [13, 21] | Velvetleaf plant response rating [13, 22] | Plant response rating, Velvetleaf [13, 23] | Velvetleaf plant response rating [13, 26] | Velvetleaf plant response rating [13, 27] | Wheat plant response rating [14, 21] | Wheat plant response rating [14, 22] | Plant response rating, Wheat [14, 23] | Wheat plant response rating [14, 26] | Wheat plant response rating [14, 27] | Wild oats plant response rating [15, 21] | Wild oats plant response rating [15, 22] | Plant response rating, Wild oats [15, 23] | Wild oats plant response rating [15, 26] | Wild oats plant response rating [15, 27] | Plant response rating, Nutsedge [16, 23] | Plant response rating (0 to 10; 0 is no effect, 10 is complete control), Nutsedge ([16]; Rate 250 g/ha, Postemergence) | Nutsedge plant response rating [16, 27] | Rice plant response rating [17, 28] | Rice plant response rating [17, 29] | Rice plant response rating [17, 30] | Rice plant response rating [17, 31] | S. Flatsedge plant response rating [18, 28] | S. Flatsedge plant response rating [18, 29] | S. Flatsedge plant response rating [18, 30] | S. Flatsedge plant response rating [18, 31] | Ducksalad plant response rating [19, 28] | Ducksalad plant response rating [19, 29] | Ducksalad plant response rating [19, 30] | Ducksalad plant response rating [19, 31] | Barnyardgrass plant response rating [20, 28] | Barnyardgrass plant response rating [20, 29] | Barnyardgrass plant response rating [20, 30] | Barnyardgrass plant response rating [20, 31]
